According to PMC10818329, “An Ultra-Performance Liquid Chromatography–Tandem Mass Spectrometry (UPLC–MS/MS) Method for Qualifying DAPB in Rat Plasma and Application to Pharmacokinetic Studies” (Molecules, 2024):

Legend:
SHR rats = tested on: SHR rats; parameters: method as in PMID 37446639; conditions: cited from earlier work
[1] = Stability of DAPB in rat plasma (NaF added); format: in vitro ADME; conditions: for Stability RE (%): n = 6
Protocol: Esterase widely exists in the blood, serum, and plasma of organisms. Therefore, DAPB may be unstable and easily hydrolyzed by plasma esterases owning to the ester group. In the method-development process, the stability of DAPB in whole blood and plasma was tested in detail. Low temperature is an important factor for maintaining the stability of the analyte; therefore, in our study, an ice-water bath was used to provide cooling conditions. Sodium fluoride (NaF), a typical esterase inhibitor, was pre-added in the collected blood samples to prevent the hydrolysis of DAPB. In the plasma with NaF added, DAPB was stable after being placed at room temperature for 4 h, −80 °C for 30 days, and then subject to three freeze/thaw cycles. In addition, the post-preparative plasma sample stored in an autosampler for 24 h remained stable.
The stability of DAPB in rat plasma was assessed by using QC samples at three concentrations in six replicates following three freeze/thaw cycles, short-term storage (room temperature for […]), long-term storage (−80 °C for 30 consecutive days), and autosampler rack storage (4 °C for 24 h). In freeze/thaw cycle tests, the QC samples were frozen and stored at −80 °C and then thawed at room temperature; this was repeated three times. The values of stability were calculated by comparing the concentrations of the QC samples following each storage period with the concentrations of the freshly prepared QC samples in the same analytical run.

[2] = Pharmacokinetic study of DAPB in rats (plasma, UPLC–MS/MS); format: in vivo, Sprague–Dawley (SD) rats
Protocol: Sprague–Dawley (SD) rats (180–200 g) were purchased from the Experimental Animal Center of Xi’an Jiaotong University (permit number SCXK 2017–003) and housed under controlled conditions (25 °C, 50 ± 5% humidity, and 12 h dark–light cycles). The animal protocol was approved by the Animal Ethics Committee of Xi’an Medical College. […] For the intravenous administration group, DAPB prepared in saline containing 5% DMSO was injected in the tail vein at a dose of 6 mg/kg. For the oral administration group, rats were given DAPB dissolved in 10% (2-hydroxypropyl)-β-cyclodextrin in water (10% HP-β-CD solution) containing 20% PEG200 and 20% propylene glycol at a dose of 30 mg/kg orally. Blood samples were collected in heparinized tubes pretreated with NaF via the ophthalmic venous plexus before and at 0.083, 0.17, 0.25, 0.50, 1.00, 2.00, 4.00, and 8.00 h after dosing. After centrifugation, the supernatant plasma was obtained and stored at −80 °C for further treatment. For the preparation of the plasma samples, 10 μL of the IS working solution (1 μg/mL), 1 μL of NaF (5 mg/mL), and 290 μL of acetonitrile were added to 100 μL of the plasma samples. Subsequently, the mixed plasma samples were centrifuged twice at 16,000× g for 5 min at 4 °C after vortexing for 30 s. For analysis, 10 μL of the supernatant was injected into the UPLC–MS/MS apparatus.

[3] = Sprague-Dawley, rat plasma, intravenous administration at 6 mg/kg, mean ± SD (n = 6)
[4] = Sprague-Dawley, rat plasma, oral administration at 30 mg/kg, mean ± SD (n = 6)
[5] = rat plasma, oral administration at 30 mg/kg, mean ± SD (n = 6)

Stability RE (%) ([1]; post-preparative rat plasma sample, autosampler rack (4 °C) for 24 h, spiked conc. 5 ng/mL): −11.6%
Stability RE (%) ([1]; post-preparative rat plasma sample, autosampler rack (4 °C) for 24 h, spiked conc. 500 ng/mL): −7.4%
Stability RE (%) ([1]; post-preparative rat plasma sample, autosampler rack (4 °C) for 24 h, spiked conc. 1000 ng/mL): −3.4%
Stability RE (%) ([1]; rat plasma, room temperature for 2 h, spiked conc. 5 ng/mL): −10.2%
Stability RE (%) ([1]; rat plasma, room temperature for 2 h, spiked conc. 500 ng/mL): −7.5%
Stability RE (%) ([1]; rat plasma, room temperature for 2 h, spiked conc. 1000 ng/mL): 1.2%
Stability RE (%) ([1]; rat plasma, three freeze/thaw cycles, spiked conc. 5 ng/mL): −6.4%
Stability RE (%) ([1]; rat plasma, three freeze/thaw cycles, spiked conc. 500 ng/mL): 2.6%
Stability RE (%) ([1]; rat plasma, three freeze/thaw cycles, spiked conc. 1000 ng/mL): −2.0%
Stability RE (%) ([1]; rat plasma, −80 °C for 30 days, spiked conc. 5 ng/mL): 5.3%
Stability RE (%) ([1]; rat plasma, −80 °C for 30 days, spiked conc. 500 ng/mL): −6.2%
Stability RE (%) ([1]; rat plasma, −80 °C for 30 days, spiked conc. 1000 ng/mL): −4.6%
Stability in plasma with NaF added (in words) ([1]; room temperature for 4 h, −80 °C for 30 days, three freeze/thaw cycles): stable
bioavailability ([2]; Sprague-Dawley, plasma, rat, oral 30 mg/kg vs intravenous 6 mg/kg): 78.2%
AUC(0-inf) [2, 3]: 13.8 ± 2.1 ng·h/mL
AUC(0-t) [2, 3]: 11.8 ± 1.66 ng·h/mL
half-life [2, 3]: 11.4 ± 0.6 min
Vd ([2]; Sprague-Dawley, rat plasma, intravenous administration at 6 mg/kg, mean ± SD (n = 6), read-out: Vss): 910 ± 24.4 L/kg
AUC(0-inf) [2, 4]: 53.9 ± 8.34 ng·h/mL
AUC(0-t) [2, 4]: 49.6 ± 7.92 ng·h/mL
Cmax [2, 4]: 33.2 ± 10.9 ng/mL
Tmax [2, 4]: 14.7 min
half-life [2, 4]: 97.8 ± 21.6 min
CL [2, 5]: 89,992.36 ± 10,292.61 mL/h/kg
Vss [2, 5]: 264.73 ± 65.86 L/kg
SMILES: C[C@@H](NC(=O)C(O)Cc1ccc(O)c(O)c1)C(=O)N1CCC[C@H]1C(=O)OC1CC2CCC1(C)C2(C)C (stereo partly drawn) [DAPB, (2R)-3-(3,4-dihydroxyphenyl)-2-hydroxypropionyl-L-alanyl-L-proline bornyl ester]
Decrease of diastolic blood pressure (DBP) (SHR rats): 35 mmHg
Decrease of systolic blood pressure (SBP) (SHR rats): 50 mmHg
